Data published in patent US6649797B2, “Compounds and methods of use to treat infectious diseases” (The Picower Institute for Medical Research, priority 1996, dated 2003).
“And” between values parts separate entries of the source, which are not always exact repeats. Identical values can stand only once. Like-named read-outs stand apart in the source and are kept apart here.

Legend:
[1] = test system: HIV-1ADA; test: HIV-1ADA production in mitogen-stimulated peripheral blood leukocytes (FIG. 3); type: cell-based
Protocol: FIG. 3. The effect of various concentrations of Compound No. 2 on RT activity in the supernatant of HIV-1-infected mitogen-stimulated peripheral blood leukocytes at infected at 10 and 1.0 ng p24/[…], FIGS. 3A and 3B, respectively.
PBMCs were purified by Ficoll-Hypaque centrifugation and activated by 10 μg/ml PHA-P (Sigma) and 20 U/ml recombinant human IL-2 (rhIL-2) in RPMI 1640 supplemented with 10% FBS (HyClone). After 24 h incubation, cells were washed and inoculated with HIV-1ADA in RPMI 1640 supplemented with 10% FBS. After a 2 h adsorption, free virus was washed away and cells were cultured in RPMI 1640 supplemented with 10% FBS and 20 U/ml rhIL-2.
(§1) For the reverse transcriptase (RT) assay, 10 μl of culture supernatant was added to 40 μl of reaction mixture (final composition was 50 mM Tris-HCl, pH 7.8; 20 MM KCl; 5 MM MgCl2; 1 mM DTT; 0.1% Triton X-100; 0.2 OD/ml polyA; 0.2 OD/ml oligo(dT)12-18; and 40 μCi/ml ^3H-dTTP (76 Ci/mmol, DuPont) and incubated 2 hr at 37° C. 5 μl of the reaction mixture was then spotted onto the DE 81 (Whatman) paper. Paper was air dried and washed 5 times with 5% Na2HPO4, followed by rinsing with distilled water. After air drying, paper was put on a Flexi Filter plate (Packard), covered with scintillation fluid and counted in a Top Count Microplate Counter (Packard). Results are expressed as counts per minute in 1 ml of supernatant (cpm/ml).

[2] = Pharmacokinetics in mice (plasma, HPLC); type: in vivo, mouse; conditions: for AUC / Cmax / bioavailability / Tmax / A (zero time intercept of the distribution phase) / B (zero time intercept of the elimination phase) / Cltot / VD / t1/2α / t1/2β / α / β: mouse
Protocol: Standard addition curves for each test compound were constructed by adding increased amounts of drug to mouse or human A^+ plasma (Long Island Blood Services; Melville, N.Y). […] The column was washed with 1.0 ml of water and then eluted with 1.0 ml of 10 mM tetramethylammonium chloride/10 mM heptane sulfonate/4.2 mM H3PO4/95% CH3CN/5% H2O (Buffer C). The eluted sample was reduced to dryness in a rotary evaporator and resuspended in 1.0 ml Buffer A.
Two hundred μl of the resuspended sample was injected onto a Hewlett-Packard model 1090 high performance liquid chromatography system (HPLC)(Wilmington, Del.) equipped with a photodiode array ultraviolet/visible spectrophotometric detector, autosampler, and Chemstation operating software. The column used was a 250×4.6 mm Zorbax RX-C8 column (Mac-Mod Analyticals; Chadd's Ford, Pa.) kept at room temperature and run at 1.5 ml/min. The mobile phase used was Buffer A and 10 mM tetramethylammonium chloride/10 mM heptane sulfonate/4.2 mM H3PO4/75% CH3CN/25% H2O (Buffer B), with all runs initiated at 10% Buffer B. A linear 30 min gradient to 60% Buffer B was then performed, followed by a 4 min reverse gradient to initial conditions.
Female ND4 Swiss Webster mice (21-24 g) were obtained from Harlan Sprague Dawley (Indianapolis, Ind.) and randomly placed in groups of five in cages with free access to food and water. […] The other CNI compounds were administered intraperitoneally or by oral gavage as a solution in water titrated with sufficient HCl to dissolve the drug. At various time points, ranging from 5 min to 4 days, a single group of animals was euthanized by carbon dioxide inhalation and bled by cardiac puncture using heparin as an anticoagulant. The blood from the five mice in the group was pooled and centrifuged at 14000× g for 10 min. The volume of plasma was measured, and equal volume of Buffer A added, and the mixture extracted and analyzed as described above, except that the dried eluates were resuspended in 200 μl Buffer A and 100 μl was injected onto the high performance liquid chromatography (HPLC) system.
The area under the plasma concentration-time curve (AUC) was determined, and bioavailability was measured as AUCoral/AUCi.p. A and B represent the zero time intercept of the distribution and elimination phases respectively, and a and β the respective slopes of the phases multiplied by 2.303. The t/2α and t1/2β are calculated half-lives of the drug in each phase (0.693/α and 0.693/β respectively). The volume of distribution (VD) was calculated as dose/B, and the total clearance rate (Cltot) calculated as β*VD. Cmax and tmax are the maximal plasma concentration and time of this measurement, respectively.

[3] = test system: HIV-1; test: AZT and Compound No. 2 in combination, HIV-1 infected monocyte cultures, RT activity; type: cell-based; conditions: for reverse transcriptase activity in supernatant: 100 nM Compound No. 2, AZT 0
Protocol: Primary human monocytes were obtained from peripheral blood by Ficoll-Hypaque centrifugation and adherence to plastic as described previously. Gartner S. P., et al., 1986, Science 233:215. Briefly, after Ficoll-Hypaque (Pharmacia) separation, PBMCs were washed 4 times with DMEM (the last wash was done at 800 rpm to remove platelets) and resuspended in monocyte culture medium [DMEM supplemented with 1 mM glutamine, 10% heat-inactivated human serum, 1% penicillin+streptomycin mixture (Sigma)] at a density of 6×10^6 cells/ml. Cells were seeded in 24-well plates (1 ml per well) and incubated for 2 h at 37° C, 5% CO2. Following incubation, cells were washed 3 times with DMEM to remove non-adherent cells and incubation was continued in monocyte culture medium supplemented with 250 U/ml human M-CSF (Sigma). Cells were allowed to mature for 7 days prior to infection with the monocyte-tropic strain, HIV-1ADA. Nuovo, G. J., et al., 1992, Diagn. Mol. Pathol. 1:98. Two hours after infection, cells were washed with medium and cultured in RPMI supplemented with 10% human serum. In experiments where PCR analysis was performed, virus was pretreated with RNAse-free DNAse (Boehinger-Mannheim) for 2 h at room temperature and then filtered though a 0.2 μm pore nitrocellulose filter prior to infection.
as §1
In view of these premises, the effects on HIV-1 replication in human monocyte cultures of the various concentrations of AZT, alone or in combination with 100 nM Compound No. 2, were tested using the protocols of Sections 6.2.1 and 6.2.2. Drugs were added to the monocyte cultures together with HIV-1 at about 10^5 TCID/ml. The concentration of drugs was maintained on refeeding. HIV-1 replication was assessed by assay of the supernatant for reverse transcriptase activity. The results are expressed as mean ± std. dev. (cpm×10^−3) in Table V.

[4] = target: HIV-1 RT (Human immunodeficiency virus type 1 group M subtype B, UniProt P04585); test: Enzymatic activity of HIV-1 RT in vitro; type: biochemical
[5] = test system: BSA with conjugated NLS peptides that mimic the NLS of SV40 large T antigen; test: Nuclear import of BSA with conjugated NLS peptides of SV40 large T antigen
[6] = test system: HIV-1; test: Reverse transcription of HIV-1 in infected cells; type: cell-based
[7] = target: T1, HIV-1 pre-integration complex (MA / HIV-1 cDNA) (Human immunodeficiency virus type 1 group M subtype B, UniProt P05890+P05959); test: Association of MA with HIV-1 cDNA (anti-MA immunoprecipitation of viral DNA); type: biochemical; conditions: 10 μM (FIG. 13A)
T1 construct: MA is made from the Gag precursor and RT is made from the Gag-Pol precursor; endogenous in cells; host or cells: cytoplasmic extract of H9 cells infected with HIV-1RF
Protocol: Cytoplasmic extracts prepared from H9 cells infected with HIV-1RF were treated with 10 μM CNI-H0294 (lanes 2, 3, and 4) or left untreated (lane 1). Samples were divided into two aliquots. One aliquot was mixed with GST-karyopherin α immobilized on Sepharose beads and the HIV-1 DNA that bound was quantified by PCR. The second aliquot was immunoprecipitated (IP) with anti-MA serum (αMA, lane 3) or with pre-immune serum (NSS, lane 4) as control.
To test this hypothesis, cytoplasmic lysates of HIV-1-infected H9 cells were treated with CNI-H0294 and mixed with immobilized karyopherin α or subjected to immunoprecipitation with antibodies that bind MA.

[8] = female, ND4 Swiss Webster, plasma, ip, 50 mg/kg, vehicle DMSO/peanut oil
[9] = female, ND4 Swiss Webster, plasma, ip, 50 mg/kg, vehicle water
[10] = female, ND4 Swiss Webster, plasma, po, 50 mg/kg, vehicle DMSO/peanut oil
[11] = i.p., 50 mg/kg, vehicle DMSO/peanut oil

For `CC(=O)c1cc(Nc2cc(C)[n+](C)c(N)n2)cc(C(C)=O)c1.[I-]` [Compound No. 2, 2-amino-4-(3,5-diacetylphenyl)amino-1,6-dimethylpyrimidinium iodide], which “reduction in viral output” value ([1]; 1 and 10 μM, lower MOI, 1 ng p24/10^6 cells) is on record?
The value was roughly 2 fold.

What about the “anti-viral effect in cultures of replicating cells” value ([1]; infected at the multiplicity of infection used to infect monocytes) of the same molecule?
The value was “No anti-viral effect was detected”.

And the “effect on viral production” value ([1]; up to 10 μM, higher MOI, 10 ng p24/10^6 cells)?
The value was “only a marginal effect”.

What about the Dose ([2]; calculated from clearance for target serum conc. (No. 2: 10 nM; No. 11: 50 nM; No. 15: 15 nM)) of the same molecule?
The Dose was 6.80 mg/Kg day.

And the “reverse transcriptase activity in supernatant” value ([3]; day-7)?
Its value is 0.37 ± 0.07 cpm×10^−3.

And the “reverse transcriptase activity in supernatant” value ([3]; day-11)?
The value was 0.72 ± 0.30 cpm×10^−3.

What about the “reduction in RT activity” value ([3]; day-11, 100 nM Compound No. 2 alone) of the same molecule?
The value was roughly 60%.

And the “inhibition of reverse transcriptase” value ([4]; data not shown)?
The value was “does not inhibit reverse transcriptase”.

For `CC(=O)c1cc(Nc2cc(C)[n+](C)c(N)n2)cc(C(C)=O)c1` [CNI-0294, 2-Amino-4-(3,5-diacetylphenyl)amino-1,6-dimethylpyrimidinium chloride], which AUC [2, 8] is on record?
Its AUC is 9150 ng·h/mL.

And the Cmax [2, 8]?
The Cmax was 18800 ng/mL.

What about the AUC [2, 9] of the same molecule?
Its AUC is 8830 ng·h/mL.

And the Cmax [2, 9]?
The Cmax was 18900 ng/mL.

And the bioavailability ([2]; female, ND4 Swiss Webster, plasma, oral, mice, single 50 mg/kg dose, AUCoral against AUCi.p., read-out: relative bioavailability)?
Its bioavailability is 6%.

And the AUC [2, 10]?
Its AUC is 560 ng·h/mL.

What about the Cmax [2, 10] of the same molecule?
Its Cmax is 410 ng/mL.

And the Tmax ([2]; female, ND4 Swiss Webster, plasma, ip, i.p., 50 mg/kg, vehicle DMSO/peanut oil, read-out: tmax (converted))?
Its Tmax is 5 min.

What about the bioavailability ([2]; female, ND4 Swiss Webster, plasma, oral, 50 mg/kg, vehicle DMSO/peanut oil, AUCoral/AUCi.p., read-out: Bioavailability) of the same molecule?
The bioavailability was 6%.

And the Tmax ([2]; female, ND4 Swiss Webster, plasma, oral, 50 mg/kg, vehicle DMSO/peanut oil, read-out: tmax (converted))?
Its Tmax is 60 min.

And the maximal plasma level ([2]; mice, oral, single 50 mg/kg dose)?
Its maximal plasma level is 0.4 µg/mL.

What about the maximal plasma level ([2]; mice, single i.p. injection (50 mg/kg; CNI-1594 20 mg/kg)) of the same molecule?
The maximal plasma level was 18.76 µg/mL and 18.76 to 18.93 µg/mL.

And the “A (zero time intercept of the distribution phase)” value [2, 11]?
The value was 14.00 µg/mL.

What about the “B (zero time intercept of the elimination phase)” value [2, 11] of the same molecule?
Its value is 0.07 µg/mL.

What about the Cltot [2, 11] of the same molecule?
The Cltot was 35.35 mL/min.

What about the VD [2, 11] of the same molecule?
The VD was 14.14 L.

And the t1/2α [2, 11]?
The t1/2α was 37.2 min.

What about the t1/2β [2, 11] of the same molecule?
The t1/2β was 277 min.

And the α [2, 11]?
Its α is 1.12 h⁻¹.

What about the β [2, 11] of the same molecule?
The β was 0.15 h⁻¹.

And the “A (zero time intercept of the distribution phase)” value ([2]; i.p., 50 mg/kg, vehicle water)?
The value was 16.07 µg/mL.

And the “B (zero time intercept of the elimination phase)” value ([2]; i.p., 50 mg/kg, vehicle water)?
The value was 0.05 µg/mL.

And the Cltot ([2]; i.p., 50 mg/kg, vehicle water)?
The Cltot was 62.70 mL/min.

And the Tmax ([2]; i.p., 50 mg/kg, vehicle water)?
The Tmax was 5 min.

And the VD ([2]; i.p., 50 mg/kg, vehicle water)?
The VD was 19.80 L.

And the t1/2α ([2]; i.p., 50 mg/kg, vehicle water)?
Its t1/2α is 24 min.

What about the t1/2β ([2]; i.p., 50 mg/kg, vehicle water) of the same molecule?
The t1/2β was 219 min.

What about the α ([2]; i.p., 50 mg/kg, vehicle water) of the same molecule?
The α was 1.74 h⁻¹.

And the β ([2]; i.p., 50 mg/kg, vehicle water)?
The β was 0.19 h⁻¹.

What about the “block of enzymatic activity of HIV-1 RT in vitro” value ([4]; concentrations up to 50 μM) of the same molecule?
Its value is “nor did it block in concentrations up to 50 μM the enzymatic activity of HIV-1 RT in vitro”.

What about the “block of nuclear import of BSA with conjugated NLS peptides” value [5] of the same molecule?
Its value is “did not block”.

What about the “inhibition of reverse transcription of HIV-1 in infected cells” value [6] of the same molecule?
The value was “did not significantly inhibit”.

What about the “immunoprecipitation of viral DNA with anti-MA serum” value [7] of the same molecule?
Its value is “did not prevent immunoprecipitation of viral DNA with anti-MA serum”.
